Experimental data taken from ChEMBL document CHEMBL1201862, “PubChem BioAssay data set” (2004).
The source made the active and inactive calls.

Assays:
[1] = ZM109 Env clade C HIV-1 fusion inhibitors, dose response, HeLa effector, CEM target cells, luciferase, cherry-pick (AID 652058); assay type: functional, cell-based
[2] = inhibitors of clade B AD8 Env fusion, dose response, cell-based, cherry-pick (AID 652062); assay type: functional;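 note: luciferase signal from cell-cell fusion driven by HIV-1 clade B AD8 Env; potency is for inhibitors of fusion seen as a drop in luminescence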
[3] = inhibitors of HIV Env-driven cell fusion, dose response, cherry-pick (AID 652057); assay type: functional, cell-based
[4] = molecular target: DNA dC->dU-editing enzyme APOBEC-3G (Homo sapiens, UniProt Q9HC16); assay type: functional;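 note: Dose-response counterscreen measuring inhibition of APOBEC3G DNA deaminase activity, run while confirming APOBEC3A inhibitors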
DNA dC->dU-editing enzyme APOBEC-3G, sequence (Q9HC16 whole entry): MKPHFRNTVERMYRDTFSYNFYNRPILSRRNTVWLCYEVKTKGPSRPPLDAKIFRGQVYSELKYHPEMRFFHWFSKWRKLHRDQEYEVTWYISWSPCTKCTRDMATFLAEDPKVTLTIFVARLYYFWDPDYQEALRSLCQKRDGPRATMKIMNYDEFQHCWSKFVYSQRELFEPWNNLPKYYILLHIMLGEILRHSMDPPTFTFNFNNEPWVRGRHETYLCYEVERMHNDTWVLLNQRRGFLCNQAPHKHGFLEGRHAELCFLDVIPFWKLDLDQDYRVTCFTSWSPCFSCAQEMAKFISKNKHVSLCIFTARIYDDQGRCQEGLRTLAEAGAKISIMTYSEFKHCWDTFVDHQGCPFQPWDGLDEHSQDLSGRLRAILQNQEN

[5] = molecular target: DNA dC->dU-editing enzyme APOBEC-3A (Homo sapiens, UniProt P31941); assay: Dose Response confirmation of small molecule APOBEC3A DNA Deaminase Inhibitors via a fluorescence-based single-stranded DNA deaminase assay. [Related pubchem assays (depositor defined):AID493011, AID493024]; assay type: functional
DNA dC->dU-editing enzyme APOBEC-3A, sequence (P31941 whole entry): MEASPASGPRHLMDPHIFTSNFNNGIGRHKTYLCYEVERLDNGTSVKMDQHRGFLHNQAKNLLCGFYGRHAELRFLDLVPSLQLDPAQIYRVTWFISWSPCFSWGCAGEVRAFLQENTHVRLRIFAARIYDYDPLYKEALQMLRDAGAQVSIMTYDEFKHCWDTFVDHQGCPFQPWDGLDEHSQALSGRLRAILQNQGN

Vero = Vero cell cytotoxicity, cytotoxicity control for flavivirus capping enzyme inhibitors (AID 588742); assay type: functional; conditions: Chlorocebus sabaeus
Genome polyprotein = Genome polyprotein (dengue virus type 2, UniProt P29990); assay: Dengue-2 NS5 methyltransferase inhibitors, primary screen, biochemical, confirmation dose response (AID 588689); assay type: functional
Genome polyprotein, sequence (P29990 2492-3391 limits assumed): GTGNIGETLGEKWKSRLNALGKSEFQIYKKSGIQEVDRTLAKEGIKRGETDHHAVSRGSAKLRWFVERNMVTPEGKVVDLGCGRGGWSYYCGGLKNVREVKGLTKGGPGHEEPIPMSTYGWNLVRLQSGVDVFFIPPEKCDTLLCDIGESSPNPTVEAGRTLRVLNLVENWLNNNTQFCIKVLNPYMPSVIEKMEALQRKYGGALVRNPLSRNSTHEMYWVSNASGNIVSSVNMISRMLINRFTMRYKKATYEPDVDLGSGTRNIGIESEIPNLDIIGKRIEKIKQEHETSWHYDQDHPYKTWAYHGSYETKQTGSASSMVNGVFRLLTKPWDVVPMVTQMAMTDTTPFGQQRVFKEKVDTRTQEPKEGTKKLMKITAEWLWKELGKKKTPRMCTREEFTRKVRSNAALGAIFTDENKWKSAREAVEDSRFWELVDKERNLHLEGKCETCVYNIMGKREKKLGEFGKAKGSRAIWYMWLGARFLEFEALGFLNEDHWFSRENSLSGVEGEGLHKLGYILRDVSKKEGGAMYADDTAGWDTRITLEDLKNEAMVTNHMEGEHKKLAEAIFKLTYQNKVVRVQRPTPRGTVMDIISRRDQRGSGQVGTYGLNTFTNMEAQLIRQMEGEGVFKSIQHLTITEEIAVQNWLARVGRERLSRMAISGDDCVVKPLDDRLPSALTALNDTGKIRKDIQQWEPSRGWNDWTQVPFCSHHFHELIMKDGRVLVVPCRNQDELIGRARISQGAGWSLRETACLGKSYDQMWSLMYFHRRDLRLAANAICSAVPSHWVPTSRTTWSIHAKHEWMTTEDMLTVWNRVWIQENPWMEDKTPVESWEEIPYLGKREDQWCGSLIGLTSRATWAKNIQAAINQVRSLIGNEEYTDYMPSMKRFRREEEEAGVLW

[6] = molecular target: T1, Carboxy-terminal domain RNA polymerase II polypeptide A small phosphatase 1 (Homo sapiens, UniProt Q9GZU7); assay: inhibitors of CTDSP1, concentration-response testing, biochemical assay, absorbance-based, actives from ultra-high-throughput screening (AID 540297); assay type: functional
T1 sequence (Q9GZU7 whole entry): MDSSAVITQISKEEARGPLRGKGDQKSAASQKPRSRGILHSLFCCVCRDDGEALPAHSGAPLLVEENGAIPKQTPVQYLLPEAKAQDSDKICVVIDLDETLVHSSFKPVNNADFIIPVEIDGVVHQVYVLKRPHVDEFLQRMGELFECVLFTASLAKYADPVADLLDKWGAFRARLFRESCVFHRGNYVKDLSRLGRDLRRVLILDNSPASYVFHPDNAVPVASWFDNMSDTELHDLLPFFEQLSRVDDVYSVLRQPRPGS

[7] = molecular target: Glucose-6-phosphate 1-dehydrogenase (Homo sapiens, UniProt P11413); assay: human G6PD enzyme inhibitors, dose response, selectivity assay for P. falciparum G6PD inhibitor project, biochemical, fluorescence (AID 504792); assay type: functional
Glucose-6-phosphate 1-dehydrogenase, sequence (P11413 whole entry): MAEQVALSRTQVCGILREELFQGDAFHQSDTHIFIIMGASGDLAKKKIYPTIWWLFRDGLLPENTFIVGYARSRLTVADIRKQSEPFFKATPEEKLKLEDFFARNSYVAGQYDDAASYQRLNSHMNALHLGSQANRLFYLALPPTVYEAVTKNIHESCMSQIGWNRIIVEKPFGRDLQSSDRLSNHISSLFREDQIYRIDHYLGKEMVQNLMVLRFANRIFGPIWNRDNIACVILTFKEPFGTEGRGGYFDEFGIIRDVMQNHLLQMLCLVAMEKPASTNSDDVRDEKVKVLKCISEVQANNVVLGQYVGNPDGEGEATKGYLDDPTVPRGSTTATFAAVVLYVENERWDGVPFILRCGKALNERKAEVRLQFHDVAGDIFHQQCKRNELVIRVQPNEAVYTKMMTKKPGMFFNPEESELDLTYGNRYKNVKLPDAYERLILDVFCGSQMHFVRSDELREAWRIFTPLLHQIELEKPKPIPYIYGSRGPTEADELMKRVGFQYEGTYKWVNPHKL

[8] = C. albicans growth with fluconazole, confirmation, fluorescence, retest (AID 2467); assay type: functional, cell-based
[9] = molecular target: T2, Mannose-6-phosphate isomerase (Homo sapiens, UniProt P34949); assay: human PMI inhibitors, high substrate, primary screen, biochemical, fluorescence intensity, high mannose 6-phosphate (AID 1220)
T2 sequence (P34949 whole entry): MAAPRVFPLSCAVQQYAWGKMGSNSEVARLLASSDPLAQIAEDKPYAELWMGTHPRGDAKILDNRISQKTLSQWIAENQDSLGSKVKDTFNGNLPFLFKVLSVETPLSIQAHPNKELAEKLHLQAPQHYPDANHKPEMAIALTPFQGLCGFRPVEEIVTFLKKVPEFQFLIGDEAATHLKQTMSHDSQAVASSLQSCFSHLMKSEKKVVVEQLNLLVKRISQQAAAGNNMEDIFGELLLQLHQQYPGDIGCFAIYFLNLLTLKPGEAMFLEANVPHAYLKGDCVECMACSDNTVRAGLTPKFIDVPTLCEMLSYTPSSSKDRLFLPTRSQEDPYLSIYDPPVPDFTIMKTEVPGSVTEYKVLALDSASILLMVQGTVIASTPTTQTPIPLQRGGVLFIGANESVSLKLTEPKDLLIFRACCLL

[10] = NIH-3T3 fibroblast cytotoxicity, dose response, cytotoxicity control, cell-based, fluorescence, Alamar Blue, secondary assay (AID 2327); assay type: functional;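 note: NIH-3T3 mouse fibroblasts cultured with fluconazole at 8 µg/mL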
[11] = molecular target: T3, Apoptotic protease-activating factor 1 (Homo sapiens, UniProt O14727); assay type: functional
T3 sequence (O14727 whole entry): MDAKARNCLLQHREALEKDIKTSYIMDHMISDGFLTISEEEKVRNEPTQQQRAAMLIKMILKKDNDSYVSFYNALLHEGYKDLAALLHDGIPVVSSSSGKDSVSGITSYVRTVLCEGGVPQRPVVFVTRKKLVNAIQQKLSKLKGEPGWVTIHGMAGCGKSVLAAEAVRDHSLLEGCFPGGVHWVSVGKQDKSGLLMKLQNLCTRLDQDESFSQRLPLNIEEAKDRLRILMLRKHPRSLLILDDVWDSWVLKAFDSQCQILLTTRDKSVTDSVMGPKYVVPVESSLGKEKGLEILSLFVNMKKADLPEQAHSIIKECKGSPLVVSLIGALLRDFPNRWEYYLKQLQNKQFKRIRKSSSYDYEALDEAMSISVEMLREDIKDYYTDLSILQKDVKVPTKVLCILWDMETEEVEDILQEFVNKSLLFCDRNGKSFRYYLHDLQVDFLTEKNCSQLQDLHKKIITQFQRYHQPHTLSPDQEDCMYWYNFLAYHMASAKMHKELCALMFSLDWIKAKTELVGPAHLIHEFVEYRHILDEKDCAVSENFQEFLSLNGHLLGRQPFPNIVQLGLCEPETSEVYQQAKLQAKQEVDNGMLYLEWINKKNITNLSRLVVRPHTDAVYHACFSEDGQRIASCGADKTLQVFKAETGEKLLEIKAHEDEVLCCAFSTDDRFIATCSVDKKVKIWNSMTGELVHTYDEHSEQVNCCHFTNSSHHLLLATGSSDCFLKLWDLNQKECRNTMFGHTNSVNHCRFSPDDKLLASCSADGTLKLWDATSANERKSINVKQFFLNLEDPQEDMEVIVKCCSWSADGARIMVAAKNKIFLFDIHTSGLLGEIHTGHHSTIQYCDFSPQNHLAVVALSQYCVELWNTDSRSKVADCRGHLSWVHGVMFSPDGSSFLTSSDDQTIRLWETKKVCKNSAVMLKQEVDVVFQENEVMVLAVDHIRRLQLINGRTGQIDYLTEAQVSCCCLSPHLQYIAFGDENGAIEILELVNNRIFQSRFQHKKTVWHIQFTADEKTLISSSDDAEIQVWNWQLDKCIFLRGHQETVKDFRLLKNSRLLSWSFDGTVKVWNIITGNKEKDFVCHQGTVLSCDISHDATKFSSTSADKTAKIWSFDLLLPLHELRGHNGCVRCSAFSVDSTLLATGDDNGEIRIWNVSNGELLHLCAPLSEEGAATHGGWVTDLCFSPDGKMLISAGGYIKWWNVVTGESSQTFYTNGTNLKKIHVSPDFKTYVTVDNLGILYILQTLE

[12] = molecular target: Induced myeloid leukemia cell differentiation protein Mcl-1 (Homo sapiens, UniProt Q07820); assay type: functional
Induced myeloid leukemia cell differentiation protein Mcl-1, sequence (Q07820 whole entry): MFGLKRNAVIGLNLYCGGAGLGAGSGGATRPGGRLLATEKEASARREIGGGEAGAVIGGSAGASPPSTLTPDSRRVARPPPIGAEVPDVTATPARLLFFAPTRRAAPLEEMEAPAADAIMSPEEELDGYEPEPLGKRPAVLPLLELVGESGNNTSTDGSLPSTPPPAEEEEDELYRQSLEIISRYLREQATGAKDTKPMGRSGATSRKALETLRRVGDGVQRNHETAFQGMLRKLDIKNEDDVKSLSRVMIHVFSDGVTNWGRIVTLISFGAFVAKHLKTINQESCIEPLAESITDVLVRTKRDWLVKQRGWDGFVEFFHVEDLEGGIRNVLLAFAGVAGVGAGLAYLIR

Major prion protein = Major prion protein (Homo sapiens, UniProt P04156); assay type: functional, cell-based
[13] = A549 cell cytotoxicity, dose response, cytotoxicity control, plate reader, cherry-pick, antagonist series (AID 743412); assay type: functional, cell-based
[14] = HepG2 cell cytotoxicity, dose response, cytotoxicity control, plate reader, cherry-pick, antagonist series (AID 743416); assay type: functional, cell-based
[15] = LGR2 antagonists, dose response, cell-based, HEK293, CRE-luciferase reporter, cherry pick, set 2 (AID 743343); assay type: functional;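 note: transfected cells were stimulated with diluted bursicon conditioned medium after compound addition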
[16] = molecular target: T4, Replicative DNA helicase DnaB (Mycobacterium tuberculosis, UniProt P9WMR3); assay: DnaB intein splicing inhibitors, dose response, biochemical, cell-free fluorescence (AID 449749); assay type: functional
T4 sequence (P9WMR3 whole entry): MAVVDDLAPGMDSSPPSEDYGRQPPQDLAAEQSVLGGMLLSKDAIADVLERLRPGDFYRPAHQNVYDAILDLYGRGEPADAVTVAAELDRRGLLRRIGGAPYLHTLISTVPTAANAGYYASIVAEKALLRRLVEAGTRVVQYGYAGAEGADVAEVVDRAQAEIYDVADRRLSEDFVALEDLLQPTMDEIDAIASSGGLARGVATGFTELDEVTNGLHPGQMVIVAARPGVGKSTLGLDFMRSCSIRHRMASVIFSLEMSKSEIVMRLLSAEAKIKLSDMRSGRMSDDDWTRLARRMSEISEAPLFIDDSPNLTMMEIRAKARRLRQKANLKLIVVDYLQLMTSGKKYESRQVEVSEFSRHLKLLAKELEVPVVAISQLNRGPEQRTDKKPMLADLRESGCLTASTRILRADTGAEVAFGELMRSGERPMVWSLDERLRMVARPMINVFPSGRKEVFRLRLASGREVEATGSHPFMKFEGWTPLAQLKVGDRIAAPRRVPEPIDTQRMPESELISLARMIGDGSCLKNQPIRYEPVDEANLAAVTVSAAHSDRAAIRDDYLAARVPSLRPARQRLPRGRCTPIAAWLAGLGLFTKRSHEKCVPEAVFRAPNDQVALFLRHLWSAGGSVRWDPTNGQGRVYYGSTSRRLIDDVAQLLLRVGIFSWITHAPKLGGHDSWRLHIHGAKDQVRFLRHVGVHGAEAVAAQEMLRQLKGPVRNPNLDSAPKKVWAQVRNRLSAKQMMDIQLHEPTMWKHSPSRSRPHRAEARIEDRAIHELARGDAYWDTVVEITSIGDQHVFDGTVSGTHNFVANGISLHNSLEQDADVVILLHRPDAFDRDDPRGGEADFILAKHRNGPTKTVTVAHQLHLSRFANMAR

Protein RecA = molecular target: T5, Protein RecA (Mycobacterium tuberculosis, UniProt P9WHJ3); assay: Fluorescence Cell-Free Homogeneous Dose Retest to Identify Inhibitors of RecA-Intein Splicing Activity. [Related pubchem assays (depositor defined):AID2097, AID2223, AID489010, AID492950]; assay type: functional
T5 sequence (P9WHJ3 whole entry): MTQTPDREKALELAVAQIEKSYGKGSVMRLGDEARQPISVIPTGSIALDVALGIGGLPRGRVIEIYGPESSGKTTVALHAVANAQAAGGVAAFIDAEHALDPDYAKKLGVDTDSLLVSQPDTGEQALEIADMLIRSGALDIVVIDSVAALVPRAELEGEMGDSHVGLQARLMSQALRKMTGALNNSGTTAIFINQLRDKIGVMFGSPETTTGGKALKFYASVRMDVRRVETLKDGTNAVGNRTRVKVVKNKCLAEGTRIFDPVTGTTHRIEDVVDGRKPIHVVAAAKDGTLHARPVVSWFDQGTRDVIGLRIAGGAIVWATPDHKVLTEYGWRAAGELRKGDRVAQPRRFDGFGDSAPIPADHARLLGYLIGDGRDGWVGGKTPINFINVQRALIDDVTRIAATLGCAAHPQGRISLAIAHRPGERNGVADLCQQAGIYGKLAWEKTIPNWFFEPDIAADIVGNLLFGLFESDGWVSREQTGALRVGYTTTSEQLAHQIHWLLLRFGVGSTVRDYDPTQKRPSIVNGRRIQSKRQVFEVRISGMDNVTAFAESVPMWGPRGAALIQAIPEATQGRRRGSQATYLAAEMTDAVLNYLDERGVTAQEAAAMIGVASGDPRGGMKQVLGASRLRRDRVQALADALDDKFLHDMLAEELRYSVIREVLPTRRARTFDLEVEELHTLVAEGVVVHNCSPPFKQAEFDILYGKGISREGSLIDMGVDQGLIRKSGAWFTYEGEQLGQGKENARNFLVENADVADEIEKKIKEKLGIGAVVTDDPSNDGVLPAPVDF

Large T antigen = Large T antigen (Simian virus 40, UniProt P03070); assay type: functional, Betapolyomavirus macacae;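 note: Confirmatory-stage PubChem screen for compounds that inhibit SV40 T antigen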
Large T antigen, sequence (P03070 whole entry): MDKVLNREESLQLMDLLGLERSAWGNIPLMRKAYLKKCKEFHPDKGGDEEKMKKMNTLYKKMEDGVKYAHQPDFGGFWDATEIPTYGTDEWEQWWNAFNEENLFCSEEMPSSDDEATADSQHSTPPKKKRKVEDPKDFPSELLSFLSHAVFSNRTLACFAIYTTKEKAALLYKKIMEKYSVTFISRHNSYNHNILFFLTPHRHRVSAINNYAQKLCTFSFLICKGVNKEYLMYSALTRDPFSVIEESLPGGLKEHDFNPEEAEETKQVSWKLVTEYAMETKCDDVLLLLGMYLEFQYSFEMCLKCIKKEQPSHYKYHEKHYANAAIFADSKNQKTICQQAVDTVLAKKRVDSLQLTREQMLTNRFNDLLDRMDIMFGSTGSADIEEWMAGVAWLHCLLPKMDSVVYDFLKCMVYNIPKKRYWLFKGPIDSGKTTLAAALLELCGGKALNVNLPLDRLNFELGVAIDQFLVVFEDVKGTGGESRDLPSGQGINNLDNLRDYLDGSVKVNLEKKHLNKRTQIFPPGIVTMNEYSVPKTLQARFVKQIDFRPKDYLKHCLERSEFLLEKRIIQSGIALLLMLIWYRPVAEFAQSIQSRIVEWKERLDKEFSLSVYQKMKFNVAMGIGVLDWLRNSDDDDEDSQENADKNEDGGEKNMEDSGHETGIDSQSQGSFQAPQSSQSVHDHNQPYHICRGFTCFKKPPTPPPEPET

COc1ccc(NC(=O)Nc2ccc3c(c2)C(=O)N([C@H](C)CO)C[C@H](C)[C@H](CN(C)CC2CC2)OCCCC[C@H](C)O3)cc1
AC50 [1]: 26.5 µM (active) | AC50 [2]: 23.5 µM (active) | AC50 [3]: 25.9 µM (active)

O=C1C=C(O)CC(c2ccco2)C1 (stereo not drawn)
IC50 [4]: 37.5 µM (active) | IC50 [5]: 14 µM (active)

O=C(O)C1=CC[C@@H](c2ccc(Cl)cc2)N(S(=O)(=O)c2ccc(Cl)cc2)[C@H]1c1ccc(Br)cc1
CC50 (Vero): > 40 µM (active) | IC50 (Genome polyprotein): 36.5 µM (active)

c1ccc2c(c1)OCC(CNc1[nH]cnc3ncnc1-3)O2 (stereo not drawn)
AC50 [1]: 7.15 µM (active) | AC50 [2]: 2.64 µM (active)

Cc1ccc(S(=O)(=O)N2[C@@H](c3cccc(Cl)c3)C(C(=O)O)=CC[C@H]2c2ccc(Cl)c(Cl)c2)cc1
CC50 (Vero): > 40 µM (active) | IC50 (Genome polyprotein): 57.9 µM (active)

CC[N+](CC)(CC)CCOc1ccc(/C=C/c2ccccc2)cc1 [STILONIUM IODIDE]
IC50 [4]: 2.57 µM (active) | IC50 [5]: 2.33 µM (active) | IC50 [6]: 20.2 µM (active)

O=[N+]([O-])c1ccc(N/N=C/c2ccc(O)c(O)c2O)c(S(=O)(=O)N2CCOCC2)c1
IC50 [7]: 55.6 µM (inactive) | EC50 [8]: > 38 µM (not active) | IC50 [9]: > 50 µM (not active) | EC50 [10]: 24.9 µM (active) | IC50 [11]: 21.4 µM (active) | IC50 [12]: 2.98 µM (active) | IC50 (Genome polyprotein): 4.6 µM (active)

Cc1cnc(NC(=O)c2cc(S(=O)(=O)N(C)C)ccc2N2CCCC2)s1
IC50 (cells): > 138 µM (inactive) | IC50 (Major prion protein): 2.87 µM (active)

CCOc1ccc(C(=O)C2=C(O)C(=O)N(c3ccccn3)C2c2ccc(F)cc2)c(C)c1 (stereo not drawn)
IC50 (cells): > 138 µM (inactive) | IC50 (Major prion protein): 13 µM (inactive)

CC(=O)Nc1nnc(SCC(=O)NCC2CCCO2)s1 (stereo not drawn)
IC50 [4]: 22.5 µM (active) | IC50 [5]: 38.6 µM (active)

Sc1nc(Cc2ccc(Cl)cc2)nc2ccccc12
IC50 (cells): > 138 µM (inactive) | IC50 (Major prion protein): 7.46 µM (active)

C[C@H](CO)N1C[C@H](C)[C@H](CN(C)Cc2cccnc2)OCc2ccccc2-c2c(n(C)c3ccccc23)C1=O
AC50 [1]: 1.21 µM (active) | AC50 [2]: 0.805 µM (active) | AC50 [3]: 15.6 µM (active)

COc1ccc(C(=O)CC(Sc2ccccc2N)c2ccc(OC)cc2)cc1 (stereo not drawn)
AC50 [13]: 48.4 µM (active) | AC50 [14]: > 52 µM (inactive) | AC50 [15]: 28.7 µM (active)

O=C(CSc1n[nH]c(-c2ccncc2)n1)Nc1ccc(Cl)c(Cl)c1
IC50 [4]: 9.18 µM (active) | IC50 [5]: 8.81 µM (active)

Nc1cc(N)c(OCC(F)(F)F)cc1OCC(F)(F)F
IC50 [7]: 32.7 µM (inactive) | AC50 [16]: 7.43 µM (active) | EC50 (Protein RecA): 4.82 µM (active)

O=C(COc1ccccc1F)OCC(=O)c1ccc([N+](=O)[O-])cc1
IC50 [7]: > 80 µM (inactive)

CCCCOC(=O)Nc1ccc(N(C)C)cc1
IC50 [12]: 0.473 µM (not active) | IC50 (Large T antigen): 5.43 µM (active)
